Results reported in patent US4668663A, “Renin inhibitors containing homophe^8” (Merck & Co., Inc., priority 1984, dated 1987).
Numbered stars: 1 amine (or outer) side, 2 acyl side, 3 side chain; on linkers, the order of the positions; unused ones are H or OH. Square brackets hold non-standard residues; d marks the D form. Peptide text beside a SMILES is read from it. * marks the point of attachment. ACHPA = O=C(C[C@H](O)[C@H](CC1CCCCC1)N[*:1])[*:2]; Sta = CC(C)C[C@H](N)[C@@H](O)CC(=O)O; hhPhe = N[C@@H](CCCc1ccccc1)C(=O)O; hPhe = N[C@@H](CCc1ccccc1)C(=O)O; Isovaleryl = CC(C)CC(=O)*; Boc = CC(C)(C)OC(=O)*

Experiments:
dog plasma renin = molecular target: T1, dog plasma renin (Canis lupus familiaris, UniProt Q6DYE7); assay: Dog plasma renin assay; assay type: biochemical; conditions: read-out: Dog Plasma I50
T1 construct: Further assays measured human plasma renin and dog plasma renin; from tissue; host or cells: dog plasma
T1 sequence (Q6DYE7 66-403): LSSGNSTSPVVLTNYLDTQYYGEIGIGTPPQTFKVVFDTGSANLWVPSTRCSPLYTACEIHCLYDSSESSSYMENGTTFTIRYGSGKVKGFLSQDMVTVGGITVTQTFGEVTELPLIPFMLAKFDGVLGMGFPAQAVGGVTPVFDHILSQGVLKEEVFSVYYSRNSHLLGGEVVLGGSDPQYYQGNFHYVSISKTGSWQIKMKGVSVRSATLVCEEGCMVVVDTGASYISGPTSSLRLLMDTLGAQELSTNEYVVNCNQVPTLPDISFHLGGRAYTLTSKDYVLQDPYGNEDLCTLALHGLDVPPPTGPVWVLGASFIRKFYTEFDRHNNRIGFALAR
Procedure: (§1) Assays were carried out in order to determine the inhibitory potency of the peptides of the present invention. One assay measured the inhibition of hog kidney renin, and was in accordance with the procedure described in Rich et al., J. Med. Chem. 23: 27, 1980, except that a pH of 7.3 was used. Another assay measured the inhibition of human kidney renin purified as described in Bangham, D. R., Robertson, I., Robinson, J. I. S., Robinson, C. J., and Tree, M., Clinical Science and Molecular Medicine, 48 (Supp. 2): 136s-159s (1975), and further purified by affinity chromatography on pepstatin-aminohexyl-Sepharase as described in Poe, M., Wu., J. K., Florance, J. R., Radkey, J. A., Bennett, C. D., and Hoogsteen, K., J. Biol. Chem. 258: 2209-2216 (1983). The assay was also in accordance with Poe et al. cited above. Further assays measured human plasma renin and dog plasma renin in accordance with procedures described in Boger et al, Nature, 303: 81-84 (1983).

human kidney renin = molecular target: T2, human kidney renin (Homo sapiens, UniProt P00797); assay: Inhibition of purified human kidney renin; assay type: biochemical; conditions: dissociation constant of the inhibited enzyme-inhibitor complex
T2 construct: human kidney renin purified as described in Bangham; from tissue; host or cells: human kidney
T2 sequence (P00797 67-406): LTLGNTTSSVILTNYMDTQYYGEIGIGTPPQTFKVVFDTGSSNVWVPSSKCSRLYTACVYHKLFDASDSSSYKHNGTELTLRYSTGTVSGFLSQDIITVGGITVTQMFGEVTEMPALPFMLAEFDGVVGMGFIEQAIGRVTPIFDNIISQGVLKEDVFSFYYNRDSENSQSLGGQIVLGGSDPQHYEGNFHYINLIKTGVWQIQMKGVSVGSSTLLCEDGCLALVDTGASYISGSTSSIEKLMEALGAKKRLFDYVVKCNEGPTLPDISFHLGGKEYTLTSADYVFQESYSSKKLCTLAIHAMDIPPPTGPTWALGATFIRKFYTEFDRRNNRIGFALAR
Procedure: as §1
Results expressed as KI values refer to the dissociation constant of the inhibited enzyme-inhibitor complex. This KI value was obtained as described above. Pepstatin was used as an active control.

human plasma renin = molecular target: T3, human plasma renin (Homo sapiens, UniProt P00797); assay: Human plasma renin assay; assay type: biochemical; conditions: read-out: Human Plasma I50
T3 construct: Further assays measured human plasma renin and dog plasma renin; from tissue; host or cells: human plasma
T3 sequence (P00797 67-406): T2 sequence (P00797 67-406)
Procedure: as §1

hog renin = conditions: after the injection of hog renin into nephrectomized rats (Gross et al.); cited from earlier work

Molecule | IC50 (dog plasma renin) [nM] | Ki (human kidney renin) [nM] | IC50 (human plasma renin) [nM] | blood pressure in vivo (hog renin)
CC(C)C[C@H](NC(=O)C[C@H](O)[C@H](CC1CCCCC1)NC(=O)[C@H](Cc1c[nH]cn1)NC(=O)[C@H](CCc1ccccc1)NC(=O)OC(C)(C)C)C(N)=O [BOC--HomoPhe--His--ACHPA--Leu--NH2, BocHPhe--His--ACHPA--Leu--NH2] | 100 | 1.17 | 3.9 | –
pepstatin | – | – | – | reduce blood pressure
COC(=O)[C@H](Cc1ccccc1)NC(=O)[C@H](CC(C)C)NC(=O)C[C@H](O)[C@H](CC1CCCCC1)NC(=O)[C@H](Cc1c[nH]cn1)NC(=O)[C@H](CCc1ccccc1)NC(=O)OC(C)(C)C [BOC--HomoPhe--His--ACHPA--Leu--Phe--OCH3, BocHPhe--His--ACHPA--Leu--Phe--OCH3] (Boc-[hPhe]H[ACHPA]LF-OMe) | 16 | 0.39 | 4 | –
CC(C)CC(=O)N[C@@H](Cc1c[nH]cn1)C(=O)N1CCC[C@H]1C(=O)N[C@@H](CCCc1ccccc1)C(=O)N[C@@H](Cc1c[nH]cn1)C(=O)N[C@@H](CC(C)C)[C@@H](O)CC(=O)N[C@@H](CC(C)C)C(=O)N[C@@H](Cc1ccccc1)C(N)=O [N^α -Isovaleryl-L-Histidyl-L-Prolyl-L-Bishomophenylalanyl-L-Histidyl-(3S,4S)-Statyl-L-Leucyl-L-Phenylalanyl Amide] (Isovaleryl-HP[hhPhe]H[Sta]LF-NH2) | 320 | 90 | – | –
COC(=O)[C@H](CC(C)C)NC(=O)C[C@H](O)[C@H](CC1CCCCC1)NC(=O)[C@H](Cc1c[nH]cn1)NC(=O)[C@H](CCc1ccccc1)NC(=O)OC(C)(C)C [BOC--HomoPhe--His--ACHPA--Leu--OCH3, BocHPhe--His--ACHPA--Leu--OCH3] | – | 0.98 | – | –
CC(C)CC(=O)N[C@@H](Cc1c[nH]cn1)C(=O)N1CCC[C@H]1C(=O)N[C@@H](CCc1ccccc1)C(=O)N[C@@H](Cc1c[nH]cn1)C(=O)N[C@@H](CC(C)C)[C@@H](O)CC(=O)N[C@@H](CC(C)C)C(=O)N[C@@H](Cc1ccccc1)C(N)=O [N^α -Isovaleryl-L-Histidyl-L-Prolyl-L-Homophenylalanyl-L-Histidyl-(3S,4S)-Statyl-L-Leucyl-L-Phenylalanyl Amide] (Isovaleryl-HP[hPhe]H[Sta]LF-NH2) | 4.5 | 0.33 | 0.14 | –
